Measurements published in publication PMC10488051, “Screening, Synthesis and Biochemical Characterization of SARS-CoV-2 Protease Inhibitors” (International Journal of Molecular Sciences, 2023).

Target: mutant PL^proC111S (Severe acute respiratory syndrome coronavirus 2, UniProt P0DTD1, C1674S)
Assay type: binding, SARS-CoV-2

Nc1ccccc1SSc1ccccc1N [Compound 32]
Thermal effect (Tm) on mutant PL^proC111S: but not the mutant PL^proC111S
